# From US20250092065A1, “2-(INDAZOL-5-YL)-6-(PIPERIDIN-4-YL)-1,7-NAPHTHYRIDINE DERIVATIVES AND RELATED COMPOUNDS AS MODULATORS FOR SPLICING NUCLEIC ACIDS AND FOR THE TREATMENT OF PROLIFERATIVE DISEASES” (REMIX THERAPEUTICS INC., priority 2022, published 2025)
# pIC50: −log10 of the molar value. Like-named read-outs stand apart in the source and are kept apart here.
# Assays:
# [1] = system: Target C; test: HiBiT protein abundance assay, Target C (K562 HiBiT knock-in); type: cell-based, human; settings: HiBiT knock-in K562 cells, 24 hours, top dose 10 μM
# Method: (§1) Cells were maintained in IMIDM with 10% FBS. Before the assay, cells were diluted with […] growth media (IMIDM+[…] media) and were seeded in a 384-well plate at a density of 10000 cells/well (for each cell line listed in Table 6). Each compound was prepared as a 10-point 3-fold serial dilution in DMSO with the top dose at a final concentration of 10 μM in the well. Unmodified K562 cells were added at the previously specified density with DMSO to serve as an assay baseline and positive control (PC) and DMSO only with the respective modified cell lines was added to the negative control (NC) columns. Final DMSO concentration was kept at or below 0.25%. Treated cell plates were placed in an incubator at 37° C. with […] for 24 hours. After 24 hours, 25 μL of Complete HiBit Lytic reagent was added to each well at room temperature (e.g. one plate requiring 10 mL Lytic Buffer, 100 μL LgBiT Protein, 200 μL Lytic Substrate), shaken for 5 minutes at 600 RPM, then left to sit for 10 minutes for signal to stabilize before reading on a Spark Cyto plate reader (Tecan) with a 500 ms measurement time.
# (§2) To determine compound effects on protein abundance of each target in Table 6, the percent response for each respective cell line was calculated at each compound concentration as follows:
# (§3) % response=100*(S−PC)(NC−PC)
# (§4) For the normalized response at each concentration, a four-parameter logistical regression was fit to the data and the response was interpolated at the […] to determine a concentration for protein abundance at 50% (IC50) the untreated control.
# [2] = system: SMN2 mRNA; test: RT-qPCR splicing assay, SMN2 mRNA; type: cell-based, human; settings: Homo sapiens, canonical junction qPCR panel, Table 4; read-out: SMN2 IC50 (decrease in CJ mRNA levels)
# How it was run: (§5)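 Both isoforms, CJ and AJ, read by qPCR from crude lysates of treated A673 or K562 cells; 24 h, 37 °C, maximum 10 uM. Normalization: housekeeper ΔCt, then DMSO ΔΔCt.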
# [3] = system: MYB; test: HiBiT protein abundance assay, MYB (K562 HiBiT knock-in); type: cell-based, human; settings: HiBiT knock-in K562 cells, 24 hours, top dose 10 μM
# Method: (§6) Compounds described herein were used to screen for effects on quantitative protein abundance using a HiBit assay system (Promega). Quantitative protein abundance was determined by measuring the protein levels of HiBit-tagged protein targets expressed in cell culture via luminescence using the Nano-Glo HiBiT Lytic Detection System, which uses a split complementation assay format to reconstitute NanoBiT enzyme to generate a luminescent signal. A protein abundance assay was developed such that endogenous protein targets could be modified with the HiBiT peptide tag and their abundance could be assessed after compound treatment. Briefly, K562 cell lines containing a HiBiT-modification were treated with various compounds described herein (e.g., compounds of Formulas (I), or (II)). After treatment for 24 hours, the protein abundance of a specific target was determined by measuring luminescence.
# as §1, §2, §3, §4
# [4] = system: HTT mRNA; test: RT-qPCR splicing assay, HTT mRNA canonical (CJ) and alternative (AJ) junction; type: cell-based, human; settings: Homo sapiens; for AC50: HTT alternative junction mRNA, read-out: HTT AJ (increase in AJ mRNA, AC50)
# How it was run: as §5
# [5] = system: MYB mRNA; test: RT-qPCR splicing assay, MYB mRNA canonical (CJ) and alternative (AJ) junction; type: cell-based, human; settings: Homo sapiens; for AC50: MYB alternative junction mRNA, read-out: MYB AJ (increase in AJ mRNA, AC50)
# How it was run: as §5
# [6] = system: HTT; test: HiBiT protein abundance assay, HTT (K562 HiBiT knock-in); type: cell-based, human; settings: HiBiT knock-in K562 cells, 24 hours, top dose 10 μM
# Method: as §6, §1, §2, §3, §4
# [7] = system: K562 cells; test: Cell Titer Glo 2.0 cell viability (toxicity) assay, K562; settings: 500 cells/well, 72 hours
# Method: Compounds described herein were screened for toxicity in K562 (human chronic myelogenous leukemia) and SH-SY5Y (human neuroblastoma) cells using a Cell Titer Glo 2.0 assay.
# Cells were plated at 500 cells/well (K562 cells) in 45 μL of IMDM supplemented with 10% FBS in a 384-well opaque plate. Wells containing only medium were used as a blank control. Test compounds (e.g., compounds of Formula (I) or (II)) were first serially diluted in DMSO then diluted 1:100 with EIDM+10% FBS. The final concentration of DMSO was 0.1% in each well. The cells were incubated for 72 hours at 37° C. and 5% CO2 before assaying with Cell Titer Glo 2.0 reagent.
# [8] = HTT canonical junction mRNA, RT-qPCR, read-out: HTT CJ (decrease in CJ mRNA levels, IC50)
# [9] = canonical junction qPCR panel, Table 4, read-out: HTT IC50 (decrease in CJ mRNA levels)
# [10] = MYB canonical junction mRNA, RT-qPCR, read-out: MYB CJ (decrease in CJ mRNA levels, IC50)
# [11] = canonical junction qPCR panel, Table 4, read-out: MYB IC50 (decrease in CJ mRNA levels)
pIC50 [1],pIC50 [2],pIC50 [3],"pIC50 [4, 8]","pIC50 [4, 9]","pIC50 [5, 10]","pIC50 [5, 11]",pIC50 [6],Compound,AC50 ([4]; RT-qPCR) [nM],AC50 ([5]; RT-qPCR) [nM],"Effect of Exemplary Compounds on Cell Viability, K562 [7]"
5.00 to 6.00,> 7.00,5.00 to 6.00,5.00 to 6.00,5.00 to 6.00,6.00 to 7.00,6.00 to 7.00,5.00 to 6.00,Cn1cc2cc(-c3ccc4nc(N5CCNC(C)(C)C5)ccc4n3)c(O)cc2n1 [Compound 120],1000 to 10000,100 to 1000,B (B represents 100-1000 nM)
5.00 to 6.00,5.00 to 6.00,5.00 to 6.00,5.00 to 6.00,5.00 to 6.00,6.00 to 7.00,6.00 to 7.00,5.00 to 6.00,Cn1cc2cc(-c3ccc4nc(N5CCNC6(CC6)C5)ccc4n3)c(O)cc2n1 [Compound 121],1000 to 10000,100 to 1000,C (C represents 1000-9999 nM)
> 7.00,> 7.00,6.00 to 7.00,> 7.00,> 7.00,6.00 to 7.00,6.00 to 7.00,> 7.00,Cn1cc2cc(-c3ccc4nc(N5CC6(CNC6)C5)ccc4n3)c(O)cc2n1 [Compound 124],100 to 1000,100 to 1000,B (B represents 100-1000 nM)
6.00 to 7.00,> 7.00,6.00 to 7.00,6.00 to 7.00,6.00 to 7.00,6.00 to 7.00,6.00 to 7.00,6.00 to 7.00,Cn1cc2cc(-c3ccc4nc(N5CCC(N6CCCC6)C5)ccc4n3)c(O)cc2n1 (stereo not shown) [Compound 125],100 to 1000,< 100,B (B represents 100-1000 nM)
> 7.00,> 7.00,> 7.00,> 7.00,> 7.00,> 7.00,> 7.00,> 7.00,Cn1cc2cc(-c3ccc4nc(N5CCC(NC(C)(C)C)C5)ccc4n3)c(O)cc2n1 (stereo not shown) [Compound 127],< 100,< 100,B (B represents 100-1000 nM)
6.00 to 7.00,> 7.00,6.00 to 7.00,6.00 to 7.00,6.00 to 7.00,6.00 to 7.00,6.00 to 7.00,6.00 to 7.00,CN(C)C1CCN(c2ccc3nc(-c4cc5cn(C)nc5cc4O)ccc3n2)C1 (stereo not shown) [Compound 129],100 to 1000,100 to 1000,B (B represents 100-1000 nM)
5.00 to 6.00,> 7.00,5.00 to 6.00,5.00 to 6.00,5.00 to 6.00,5.00 to 6.00,5.00 to 6.00,5.00 to 6.00,CCNC1CCN(c2ccc3nc(-c4cc5cn(C)nc5cc4O)ccc3n2)CC1 [Compound 131],> 10000,1000 to 10000,B (B represents 100-1000 nM)
< 5.00,< 5.00,< 5.00,< 5.00,< 5.00,< 5.00,< 5.00,< 5.00,Cn1cc2cc(-c3ccc4nc(N5CCC(NC(C)(C)C)CC5)ccc4n3)c(O)cc2n1 [Compound 132],> 10000,> 10000,C (C represents 1000-9999 nM)
5.00 to 6.00,> 7.00,5.00 to 6.00,5.00 to 6.00,5.00 to 6.00,5.00 to 6.00,5.00 to 6.00,5.00 to 6.00,CN(C)C1CCN(c2ccc3nc(-c4cc5cn(C)nc5cc4O)ccc3n2)CC1 [Compound 133],1000 to 10000,100 to 1000,B (B represents 100-1000 nM)
6.00 to 7.00,> 7.00,6.00 to 7.00,5.00 to 6.00,5.00 to 6.00,6.00 to 7.00,6.00 to 7.00,6.00 to 7.00,Cn1cc2cc(-c3ccc4nc(N5CCNCC5)ccc4n3)c(O)cc2n1 [Compound 136],1000 to 10000,100 to 1000,B (B represents 100-1000 nM)
6.00 to 7.00,> 7.00,6.00 to 7.00,6.00 to 7.00,6.00 to 7.00,6.00 to 7.00,6.00 to 7.00,6.00 to 7.00,C[C@@H]1CC(c2ccc3nc(-c4cc5cn(C)nc5cc4O)ccc3n2)C[C@H](C)N1 (stereo partly shown) [Compound 137],1000 to 10000,100 to 1000,B (B represents 100-1000 nM)
6.00 to 7.00,> 7.00,6.00 to 7.00,6.00 to 7.00,6.00 to 7.00,6.00 to 7.00,6.00 to 7.00,6.00 to 7.00,CCN1CCC(c2ccc3nc(-c4cc5cn(C)nc5cc4O)ccc3n2)CC1 [Compound 138],100 to 1000,100 to 1000,B (B represents 100-1000 nM)
> 7.00,> 7.00,6.00 to 7.00,> 7.00,> 7.00,> 7.00,> 7.00,6.00 to 7.00,C[C@H]1C[C@H](c2ccc3nc(-c4cc5cn(C)nc5cc4O)ccc3n2)CCN1 [Compound 139],< 100,< 100,B (B represents 100-1000 nM)
6.00 to 7.00,> 7.00,6.00 to 7.00,> 7.00,> 7.00,> 7.00,> 7.00,6.00 to 7.00,C[C@H]1C[C@@H](c2ccc3nc(-c4cc5cn(C)nc5cc4O)ccc3n2)CCN1 [Compound 140],100 to 1000,100 to 1000,B (B represents 100-1000 nM)
5.00 to 6.00,6.00 to 7.00,5.00 to 6.00,5.00 to 6.00,5.00 to 6.00,6.00 to 7.00,6.00 to 7.00,5.00 to 6.00,Cn1cc2c(O)c(-c3cc4ccc(C5CCNCC5)nc4cn3)cc(Br)c2n1 [Compound 141],1000 to 10000,1000 to 10000,C (C represents 1000-9999 nM)
6.00 to 7.00,> 7.00,6.00 to 7.00,6.00 to 7.00,6.00 to 7.00,6.00 to 7.00,6.00 to 7.00,6.00 to 7.00,CN1CCC(c2ccc3nc(-c4cc5cn(C)nc5cc4O)ccc3n2)CC1 [Compound 142],100 to 1000,100 to 1000,B (B represents 100-1000 nM)
5.00 to 6.00,< 5.00,< 5.00,< 5.00,< 5.00,< 5.00,< 5.00,< 5.00,COc1cc2nn(C)cc2cc1-c1ccc2c(F)c(C3CCNCC3)ccc2n1 [Compound 143],> 10000,> 10000,B (B represents 100-1000 nM)
